According to publication PMC4492579, “Potent and Selective Triazole-Based Inhibitors of the Hypoxia-Inducible Factor Prolyl-Hydroxylases with Activity in the Murine Brain” (PLoS ONE, 2015):
pEC50, pIC50: −log10 of the molar value. Counter-ions that a name gives are not always drawn. Like-named read-outs stand apart in the source and are kept apart here.

Tests used:
U2OS = assay: Quantitative HIF1α MSD immunoassay, U2OS; type: cell-based; details: Homo sapiens, read-out: HIF1α EC50
Procedure: (§1) Cells were seeded into 96-well cell culture plates (150 μl culture volume) at approximately 60–70% confluency at least 12 h prior to the compound treatment. Half of the culture medium (75 μl/well) were removed and 75 μl/well of medium containing the desired concentrations of compounds were added into cells for 5 h. The cell medium was then removed and the cells were washed once with phosphate buffered saline (PBS), followed by the addition of lysis buffer (20 mM Tris pH 7.4, 450 mM NaCl, 1 mM EDTA, 1 mM EGTA, 0.5% Triton X-100, 1x complete protease inhibitor cocktail and 100 μM DFO). Plates were then left at 4°C with shaking. […] Plates were washed thrice with Tris Wash Buffer, added with 150 μl/well 2X Read Buffer (R92TC, Meso Scale Discovery) before being read with an MSD Sector S600 plate reader (Meso Scale Discovery). Signals generated were normalized to “lysis buffer-only” controls.
(§2) To quantify the cellular efficiency of PHD inhibition, we developed an electrochemiluminescence-based assay for the quantification of HIF1α levels using the Meso Scale Discovery (MSD, http://www.mesoscale.com) technology (HIF1α MSD assay), which is based on the capture and detection of HIF1α protein using two specific HIF1α antibodies. […]

PHD2 [1] = biological target: T1, PHD2 (Homo sapiens, UniProt Q9GZT9); assay: Competition-based NMR reporter ligand displacement assay ([13C]-2OG / [13C]-CODD); type: binding; details: 50 μM apo-PHD2, 400 μM Zn(II), 400 μM competitor
T1 sequence (Q9GZT9 whole entry): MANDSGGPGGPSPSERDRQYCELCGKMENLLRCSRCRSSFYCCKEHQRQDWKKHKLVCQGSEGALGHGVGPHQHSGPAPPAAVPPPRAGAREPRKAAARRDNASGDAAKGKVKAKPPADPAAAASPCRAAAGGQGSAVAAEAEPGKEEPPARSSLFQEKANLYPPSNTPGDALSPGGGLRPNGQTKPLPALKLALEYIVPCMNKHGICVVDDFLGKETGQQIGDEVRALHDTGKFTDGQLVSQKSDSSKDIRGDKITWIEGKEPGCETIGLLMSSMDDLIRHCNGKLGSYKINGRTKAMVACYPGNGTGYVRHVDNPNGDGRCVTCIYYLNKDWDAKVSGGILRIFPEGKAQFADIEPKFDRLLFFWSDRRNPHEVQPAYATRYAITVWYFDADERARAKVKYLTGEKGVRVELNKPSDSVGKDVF
Procedure: For 2OG displacement assays, selective ^1H-^13C 1D-HSQC experiments were conducted at 700 MHz using a Bruker Avance III spectrometer equipped with an inverse TCI cryoprobe optimized for ^1H observation. The CLIP-HSQC sequence was used (without ^13C decoupling). Typical experimental parameters were as follows: acquisition time 0.58 s, relaxation delay 2 s, number of transients 256−1600. The 1JCH was set to 160 Hz. For the selective version of the experiment, a 6.8 ms Q3 180 degree pulse was used, and selective irradiation was applied at the appropriate [^13C] chemical shift. Three millimeter MATCH tubes with a 160 μL final sample volume were used. Solutions were buffered using Tris-D11 50 mM (pH 7.5) dissolved in 90% H2O and 10% D2O. Assays were conducted at 298 K in solutions typically containing 50 μM apo-PHD2, 400 μM Zn(II), 50 μM 1,2,3,4-[^13C]-2OG or [^13C]-labeled CODD (uniformly [^13C]-labeled at proline-564) and 400 μM competitor (except unlabeled CODD competitor used at 800 μM). Selective irradiation was applied at 30.5 ppm for [^13C]-2OG and 24.25 ppm for [^13C]-labeled CODD. Percentage displacement was calculated according to equation: (I−I0)/(Iblank−I0) where I 0 is the intensity of the reporter in the presence of protein but without inhibitor, I is the intensity of the reporter in the presence of protein and inhibitor, and I blank is the intensity of the reporter without protein or inhibitor.
The results reveal that the previously described inhibitor IOX2 displaces 2OG from PHD2 (S3A Fig), consistent with its predicted binding mode. […] Previous crystallographic studies have shown that the HIF substrate can still bind even when the 2OG active site is occupied by some, but not all, inhibitors.

FTO = FTO (Homo sapiens, UniProt Q9C0B1); assay: FTO LC-MS assay
Sequence of FTO (Q9C0B1 whole entry): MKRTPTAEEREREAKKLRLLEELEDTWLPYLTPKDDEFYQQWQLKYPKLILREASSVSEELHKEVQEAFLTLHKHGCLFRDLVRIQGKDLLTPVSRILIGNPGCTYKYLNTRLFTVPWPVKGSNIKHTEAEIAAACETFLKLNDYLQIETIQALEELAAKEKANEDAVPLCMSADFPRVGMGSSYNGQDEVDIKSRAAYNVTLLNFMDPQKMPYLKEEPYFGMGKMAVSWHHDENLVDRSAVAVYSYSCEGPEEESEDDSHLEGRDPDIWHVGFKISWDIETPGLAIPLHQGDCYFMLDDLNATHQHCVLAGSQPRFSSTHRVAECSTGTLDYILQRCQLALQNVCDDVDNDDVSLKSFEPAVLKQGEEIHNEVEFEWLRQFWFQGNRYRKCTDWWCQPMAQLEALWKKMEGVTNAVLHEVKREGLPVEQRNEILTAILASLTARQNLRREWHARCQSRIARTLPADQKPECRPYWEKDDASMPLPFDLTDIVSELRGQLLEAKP
Procedure: (§3) Inhibition assays for PHD2 (AlphaScreen) [9], the KDMs (AlphaScreen) [17], BBOX [18] and FTO [19] were carried out as previously described. N-Terminally biotinylated 19-residue human HIF1α CODD peptide ([sequence]) used in the PHD2 inhibition assays was from GL Biochem (Shanghai). IC50 values were calculated using nonlinear regression with normalized dose-response fit using GraphPad Prism 5.

Hep3B = assay: Quantitative HIF1α MSD immunoassay, Hep3B; type: cell-based; details: Homo sapiens, read-out: HIF1α EC50
Procedure: as §1, §2

JMJD2E (KDM4E) = biological target: T2, JMJD2E (KDM4E) (Homo sapiens, UniProt B2RXH2); assay: KDM AlphaScreen assay, JMJD2E
T2 sequence (B2RXH2 1-506): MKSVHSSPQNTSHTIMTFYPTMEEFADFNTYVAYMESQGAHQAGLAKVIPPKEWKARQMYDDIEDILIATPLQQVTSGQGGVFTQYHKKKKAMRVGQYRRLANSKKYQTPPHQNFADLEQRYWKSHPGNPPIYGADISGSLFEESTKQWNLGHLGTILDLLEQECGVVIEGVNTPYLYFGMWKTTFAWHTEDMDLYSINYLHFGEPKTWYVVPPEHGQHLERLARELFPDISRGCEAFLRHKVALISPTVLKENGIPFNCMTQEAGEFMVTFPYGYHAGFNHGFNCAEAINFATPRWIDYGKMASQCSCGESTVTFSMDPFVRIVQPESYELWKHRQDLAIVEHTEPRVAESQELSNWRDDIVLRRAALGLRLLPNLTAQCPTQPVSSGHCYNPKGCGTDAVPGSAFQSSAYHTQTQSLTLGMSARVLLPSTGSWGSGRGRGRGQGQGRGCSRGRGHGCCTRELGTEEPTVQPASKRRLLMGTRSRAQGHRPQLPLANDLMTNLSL
Procedure: Inhibition assays for PHD2 (AlphaScreen) [9], the KDMs (AlphaScreen) [17], BBOX [18] and FTO [19] were carried out as previously described. […] IC50 values were calculated using nonlinear regression with normalized dose-response fit using GraphPad Prism 5.

BBOX1 = biological target: T3, BBOX1 (Homo sapiens, UniProt O75936); assay: BBOX fluoride-release / detection based fluorescence assay
T3 sequence (O75936 1-387): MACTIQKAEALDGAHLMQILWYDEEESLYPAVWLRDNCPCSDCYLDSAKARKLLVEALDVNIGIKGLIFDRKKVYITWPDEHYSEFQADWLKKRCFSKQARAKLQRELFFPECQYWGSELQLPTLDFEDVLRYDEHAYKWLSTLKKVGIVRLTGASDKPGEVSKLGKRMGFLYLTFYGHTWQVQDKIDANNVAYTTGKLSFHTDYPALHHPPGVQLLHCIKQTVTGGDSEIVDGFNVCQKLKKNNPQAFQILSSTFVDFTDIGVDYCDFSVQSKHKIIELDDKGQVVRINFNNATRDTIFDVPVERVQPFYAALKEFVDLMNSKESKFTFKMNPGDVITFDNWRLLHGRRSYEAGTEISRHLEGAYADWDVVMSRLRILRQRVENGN
Procedure: as §3

PHD2 [2] = biological target: T1, PHD2; assay: PHD2 antibody-based (AlphaScreen) in vitro hydroxylation assay
Procedure: as §3

Row | SMILES | pEC50 (U2OS; 5 h) | displacement of [13C]-2OG from PHD2 (PHD2 [1]) | displacement of [13C]-CODD from PHD2 (PHD2 [1]) | pIC50 (FTO) | pEC50 (Hep3B; 5 h) | pIC50 (JMJD2E (KDM4E)) | pIC50 (BBOX1) | pIC50 (PHD2 [2]) | pEC50 (U2OS; 5 h treatment, MSD assay) | pEC50 (Hep3B; 5 h treatment, MSD assay) | selectivity for PHD2 over all other tested enzymes (PHD2 [2]; from IC50 values of the 2OG oxygenase panel (Table 1))
1 | CC(C)(C)OC(=O)c1ccc(-n2[nH]cc(-n3ccnn3)c2=O)nc1 [IOX4, t-Butyl 6-(5-oxo-4-(1H-1,2,3-triazol-1-yl)-2,5-dihydro-1H-pyrazol-1-yl)nicotinate] | 5.25 | displaces 2OG | remained bound | 4.31 | 4.95 | < 4.70 | 4.14 | 8.80 |  |  | 
2 | O=C(O)CNC(=O)c1c(O)c2ccccc2n(Cc2ccccc2)c1=O [IOX2] |  | displaces 2OG | not displaced | 4.96 |  |  | 5.02 |  | 4.31 | 4.07 | approximately 400 fold
3 | O=C(O)c1ccc(-n2[nH]cc(-n3ccnn3)c2=O)nc1 [compound 1, 6-(5-oxo-4-(1H-1,2,3-triazol-1-yl)-2,5-dihydro-1H-pyrazol-1-yl)pyridine-3-carbocylic acid hydrochloride] |  |  |  | 4.43 |  | < 4.70 | < 4.30 | 8.32 |  |  | 
